According to patent publication US12077503B2, “Substituted cyclic amides and their use as herbicides” (FMC CORPORATION, priority 2015, dated 2024):

Assays:
Assay type in all cases: in vivo
[1] = system: redroot pigweed (Amaranthus retroflexus); assay: Test G Pre-Emergence Protocol; conditions: Amaranthus retroflexus, pre-emergence, 312 h, evaluated after 13 days; for pest or weed control at 15.625 g/ha: 15.625 g ai/ha; for pest or weed control at 15.625 g/ha / pest or weed control at 250 g/ha: read-out: Pigweed, Redroot damage rating (100=total damage to plant; 0=no damage to plant); for pest or weed control at 62.5 g/ha: 62.5 g ai/ha, 100=total damage to plant, 0=no damage to plant, read-out: Pigweed, Redroot damage rating; for pest or weed control at 250 g/ha: 250 g ai/ha
Outline: (§1)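 Herbicidal effect was rated 13 days post-application on a scale where 100 equals total damage. Spraying took place the day after sowing, using 15.625, 62.5 or 250 g/ha of compound in a 50:50 acetone/water solution with 0.5% Tween 20.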

corn (Zea mays) [2] = assay: Test G Pre-Emergence Protocol; conditions: Zea mays, pre-emergence, 312 h, evaluated after 13 days; for plant injury at 15.625 g/ha: 15.625 g ai/ha; for plant injury at 15.625 g/ha / plant injury at 250 g/ha: read-out: Corn damage rating (100=total damage to plant; 0=no damage to plant); for plant injury at 62.5 g/ha: 62.5 g ai/ha, 100=total damage to plant, 0=no damage to plant, read-out: Corn damage rating; for plant injury at 250 g/ha: 250 g ai/ha
Outline: as §1

[3] = system: velvetleaf (Abutilon theophrasti); assay: Test G Pre-Emergence Protocol; conditions: Abutilon theophrasti, pre-emergence, 312 h, evaluated after 13 days; for pest or weed control at 15.625 g/ha: 15.625 g ai/ha; for pest or weed control at 15.625 g/ha / pest or weed control at 250 g/ha: read-out: Velvetleaf damage rating (100=total damage to plant; 0=no damage to plant); for pest or weed control at 62.5 g/ha: 62.5 g ai/ha, 100=total damage to plant, 0=no damage to plant, read-out: Velvetleaf damage rating; for pest or weed control at 250 g/ha: 250 g ai/ha
Outline: as §1

[4] = system: giant foxtail (Setaria faberi); assay: Test G Pre-Emergence Protocol; conditions: Setaria faberi, pre-emergence, 312 h, evaluated after 13 days; for pest or weed control at 15.625 g/ha: 15.625 g ai/ha; for pest or weed control at 15.625 g/ha / pest or weed control at 250 g/ha: read-out: Foxtail, Giant damage rating (100=total damage to plant; 0=no damage to plant); for pest or weed control at 62.5 g/ha: 62.5 g ai/ha, 100=total damage to plant, 0=no damage to plant, read-out: Foxtail, Giant damage rating; for pest or weed control at 250 g/ha: 250 g ai/ha
Outline: as §1

[5] = system: barnyardgrass (Echinochloa crus-galli); assay: Test G Pre-Emergence Protocol; conditions: Echinochloa crus-galli, pre-emergence, 312 h, evaluated after 13 days; for pest or weed control at 15.625 g/ha: 15.625 g ai/ha; for pest or weed control at 15.625 g/ha / pest or weed control at 250 g/ha: read-out: Barnyardgrass damage rating (100=total damage to plant; 0=no damage to plant); for pest or weed control at 62.5 g/ha: 62.5 g ai/ha, 100=total damage to plant, 0=no damage to plant, read-out: Barnyardgrass damage rating; for pest or weed control at 250 g/ha: 250 g ai/ha
Outline: as §1

[6] = system: ivy-leaved morning glory (Ipomoea hederacea); assay: Test G Pre-Emergence Protocol; conditions: Ipomoea, pre-emergence, 312 h, evaluated after 13 days; for pest or weed control at 15.625 g/ha: 15.625 g ai/ha; for pest or weed control at 15.625 g/ha / pest or weed control at 250 g/ha: read-out: Morningglory, Ivy-leaved damage rating (100=total damage to plant; 0=no damage to plant); for pest or weed control at 62.5 g/ha: 62.5 g ai/ha, 100=total damage to plant, 0=no damage to plant, read-out: Morningglory, Ivy-leaved damage rating; for pest or weed control at 250 g/ha: 250 g ai/ha
Outline: as §1

[7] = system: redroot pigweed (Amaranthus retroflexus); assay: Test G Post-Emergence Protocol; conditions: Amaranthus retroflexus, post-emergence, 312 h, read-out: Pigweed, Redroot damage rating; for pest or weed control at 15.625 g/ha: 15.625 g ai/ha, evaluated after 13 days (100=total damage to plant; 0=no damage to plant); for pest or weed control at 62.5 g/ha: 62.5 g ai/ha; for pest or weed control at 62.5 g/ha / pest or weed control at 250 g/ha: evaluated after 13 days, 100=total damage to plant, 0=no damage to plant; for pest or weed control at 250 g/ha: 250 g ai/ha
Outline: (§2)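 Sow in soil; grow 8 d (24/16 °C, 14 h light, 65% humidity); spray 15.625/62.5/250 g/ha in acetone:water 50:50 + 0.5% Tween 20; grow on, water twice daily; score damage 0–100 at 13 d.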

corn (Zea mays) [8] = assay: Test G Post-Emergence Protocol; conditions: Zea mays, post-emergence, 312 h, read-out: Corn damage rating; for plant injury at 15.625 g/ha: 15.625 g ai/ha, evaluated after 13 days (100=total damage to plant; 0=no damage to plant); for plant injury at 62.5 g/ha: 62.5 g ai/ha; for plant injury at 62.5 g/ha / plant injury at 250 g/ha: evaluated after 13 days, 100=total damage to plant, 0=no damage to plant; for plant injury at 250 g/ha: 250 g ai/ha
Outline: as §2

[9] = system: velvetleaf (Abutilon theophrasti); assay: Test G Post-Emergence Protocol; conditions: Abutilon theophrasti, post-emergence, 312 h, read-out: Velvetleaf damage rating; for pest or weed control at 15.625 g/ha: 15.625 g ai/ha, evaluated after 13 days (100=total damage to plant; 0=no damage to plant); for pest or weed control at 62.5 g/ha: 62.5 g ai/ha; for pest or weed control at 62.5 g/ha / pest or weed control at 250 g/ha: evaluated after 13 days, 100=total damage to plant, 0=no damage to plant; for pest or weed control at 250 g/ha: 250 g ai/ha
Outline: as §2

[10] = system: giant foxtail (Setaria faberi); assay: Test G Post-Emergence Protocol; conditions: Setaria faberi, post-emergence, 312 h, read-out: Foxtail, Giant damage rating; for pest or weed control at 15.625 g/ha: 15.625 g ai/ha, evaluated after 13 days (100=total damage to plant; 0=no damage to plant); for pest or weed control at 62.5 g/ha: 62.5 g ai/ha; for pest or weed control at 62.5 g/ha / pest or weed control at 250 g/ha: evaluated after 13 days, 100=total damage to plant, 0=no damage to plant; for pest or weed control at 250 g/ha: 250 g ai/ha
Outline: as §2

[11] = system: barnyardgrass (Echinochloa crus-galli); assay: Test G Post-Emergence Protocol; conditions: Echinochloa crus-galli, post-emergence, 312 h, read-out: Barnyardgrass damage rating; for pest or weed control at 15.625 g/ha: 15.625 g ai/ha, evaluated after 13 days (100=total damage to plant; 0=no damage to plant); for pest or weed control at 62.5 g/ha: 62.5 g ai/ha; for pest or weed control at 62.5 g/ha / pest or weed control at 250 g/ha: evaluated after 13 days, 100=total damage to plant, 0=no damage to plant; for pest or weed control at 250 g/ha: 250 g ai/ha
Outline: as §2

[12] = system: ivy-leaved morning glory (Ipomoea hederacea); assay: Test G Post-Emergence Protocol; conditions: Ipomoea, post-emergence, 312 h, read-out: Morningglory, Ivy-leaved damage rating; for pest or weed control at 15.625 g/ha: 15.625 g ai/ha, evaluated after 13 days (100=total damage to plant; 0=no damage to plant); for pest or weed control at 62.5 g/ha: 62.5 g ai/ha; for pest or weed control at 62.5 g/ha / pest or weed control at 250 g/ha: evaluated after 13 days, 100=total damage to plant, 0=no damage to plant; for pest or weed control at 250 g/ha: 250 g ai/ha
Outline: as §2

Structure (SMILES) | pest or weed control at 15.625 g/ha [1] | pest or weed control at 62.5 g/ha [1] | pest or weed control at 250 g/ha [1] | plant injury at 15.625 g/ha (corn (Zea mays) [2]) | plant injury at 62.5 g/ha (corn (Zea mays) [2]) | plant injury at 250 g/ha (corn (Zea mays) [2]) | pest or weed control at 15.625 g/ha [3] | pest or weed control at 62.5 g/ha [3] | pest or weed control at 250 g/ha [3] | pest or weed control at 15.625 g/ha [4] | pest or weed control at 62.5 g/ha [4] | pest or weed control at 250 g/ha [4] | pest or weed control at 15.625 g/ha [5] | pest or weed control at 62.5 g/ha [5] | pest or weed control at 250 g/ha [5] | pest or weed control at 15.625 g/ha [6] | pest or weed control at 62.5 g/ha [6] | pest or weed control at 250 g/ha [6] | pest or weed control at 15.625 g/ha [7] | pest or weed control at 62.5 g/ha [7] | further results
Cc1c(F)cccc1NC(=O)[C@@H]1C(=O)N(C)C[C@H]1c1cccc(OCC(F)(F)F)c1 (racemic) [Compound 1764] | 0% | 10% | 30% | 0% | 20% | 70% | 0% | 10% | 30% | 60% | 70% | 80% | 40% | 70% | 80% | 0% | 0% | 20% | 0% | 10% | pest or weed control at 250 g/ha [7]: 30%; plant injury at 15.625 g/ha (corn (Zea mays) [8]): 10%; plant injury at 62.5 g/ha (corn (Zea mays) [8]): 10%; plant injury at 250 g/ha (corn (Zea mays) [8]): 70%; pest or weed control at 15.625 g/ha [9]: 20%; pest or weed control at 62.5 g/ha [9]: 40%; pest or weed control at 250 g/ha [9]: 60%; pest or weed control at 15.625 g/ha [10]: 70%; pest or weed control at 62.5 g/ha [10]: 80%; pest or weed control at 250 g/ha [10]: 80%; pest or weed control at 15.625 g/ha [11]: 40%; pest or weed control at 62.5 g/ha [11]: 50%; pest or weed control at 250 g/ha [11]: 80%; pest or weed control at 15.625 g/ha [12]: 10%; pest or weed control at 62.5 g/ha [12]: 30%; pest or weed control at 250 g/ha [12]: 70%
COCCOc1cccc([C@@H]2CN(C)C(=O)[C@H]2C(=O)Nc2cccc(F)c2C)c1 (racemic) [Compound 1765] | 0% | 0% | 0% | 0% | 0% | 20% | 0% | 0% | 0% | 50% | 70% | 90% | 20% | 50% | 60% | 0% | 0% | 0% | 0% | 0% | pest or weed control at 250 g/ha [7]: 0%; plant injury at 15.625 g/ha (corn (Zea mays) [8]): 0%; plant injury at 62.5 g/ha (corn (Zea mays) [8]): 10%; plant injury at 250 g/ha (corn (Zea mays) [8]): 10%; pest or weed control at 15.625 g/ha [9]: 0%; pest or weed control at 62.5 g/ha [9]: 0%; pest or weed control at 250 g/ha [9]: 0%; pest or weed control at 15.625 g/ha [10]: 10%; pest or weed control at 62.5 g/ha [10]: 60%; pest or weed control at 250 g/ha [10]: 70%; pest or weed control at 15.625 g/ha [11]: 0%; pest or weed control at 62.5 g/ha [11]: 30%; pest or weed control at 250 g/ha [11]: 70%; pest or weed control at 15.625 g/ha [12]: 0%; pest or weed control at 62.5 g/ha [12]: 0%; pest or weed control at 250 g/ha [12]: 20%
Cc1c(F)cccc1NC(=O)[C@@H]1C(=O)N(C)C[C@H]1c1cccc(OCC2CC2)c1 (racemic) [Compound 1766] | 0% | 0% | 0% | 20% | 10% | 20% | 0% | 0% | 10% | 30% | 70% | 70% | 10% | 60% | 80% | 0% | 0% | 0% | 0% | 0% | pest or weed control at 250 g/ha [7]: 20%; plant injury at 15.625 g/ha (corn (Zea mays) [8]): 30%; plant injury at 62.5 g/ha (corn (Zea mays) [8]): 20%; plant injury at 250 g/ha (corn (Zea mays) [8]): 60%; pest or weed control at 15.625 g/ha [9]: 0%; pest or weed control at 62.5 g/ha [9]: 0%; pest or weed control at 250 g/ha [9]: 10%; pest or weed control at 15.625 g/ha [10]: 20%; pest or weed control at 62.5 g/ha [10]: 50%; pest or weed control at 250 g/ha [10]: 80%; pest or weed control at 15.625 g/ha [11]: 60%; pest or weed control at 62.5 g/ha [11]: 30%; pest or weed control at 250 g/ha [11]: 80%; pest or weed control at 15.625 g/ha [12]: 0%; pest or weed control at 62.5 g/ha [12]: 20%; pest or weed control at 250 g/ha [12]: 40%
